This note sets out measurements from PubChem BioAssay (NCI).

The structures appear in SMILES notation.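 Results reflect a 48-hour exposure of cells in 96-well plates to compound at five concentrations. GI50 marks 50% less growth. The concentration for full growth arrest is given as TGI.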 Some results are limits rather than exact numbers.

What all share (assay): NCI tumour cell line growth inhibition, 48 h
Experiment [1] relates to MALME-3M melanoma.
Experiment [2] deals with SF-539 CNS.
Experiment [3] deals with U251 CNS.
The subject of experiment [4] is OVCAR-4 ovarian.
The subject of experiment [5] is MCF7 breast.

For `CCN1/C(=C/c2ccc3ccccc3[n+]2CC)C=Cc2ccccc21`, the TGI in experiment [1] worked out at 6.89 µM; in experiment [2] it was 13.7 µM; in experiment [3], 11.1 µM; in experiment [4] it was 19.8 µM; in experiment [5], 13.1 µM.

As to `O=C(O)c1c(-c2c3ccc(=O)cc-3oc3cc(O)ccc23)cc2ccccc2c1-c1ccccc1`, the TGI in experiment [1], in experiment [2], in experiment [3], in experiment [4] and in experiment [5] was > 100 µM throughout.

For the molecule `OC1C(O)C(O)C(O)C(O)C1O` (stereo not given), the TGI in experiment [1], in experiment [2], in experiment [3], in experiment [4] and in experiment [5] was > 1000 µM throughout.

In the case of `N#CCCC(CC#N)N1CCN(CCO)CC1` (stereo not given), the TGI in experiment [1], in experiment [2], in experiment [3], in experiment [4] and in experiment [5] was > 100 µM each time.

Take `COc1ccc(CNc2nc(NCc3ccc(OC)cc3)nc(Nc3ccccc3)n2)cc1`: the TGI in experiment [1], in experiment [2], in experiment [3], in experiment [4] and in experiment [5] was > 100 µM throughout.

As for `O=S(=O)(O)CCS`, the TGI in experiment [1], in experiment [2], in experiment [3], in experiment [4] and in experiment [5] was > 100 µM in each case.

Turning to `Cc1cccc2sc(NC(=O)c3cc([N+](=O)[O-])ccc3Cl)nc12`, the TGI was 30.3 µM in experiment [1]; 6.25 µM in experiment [2]; 11.4 µM in experiment [3]; > 100 µM in experiment [4]; > 100 µM in experiment [5].

Take `O=c1nc2n(cc1/C=C\Br)C1CC(O)C(CO2)O1` (stereo not given): the TGI in experiment [1], in experiment [2], in experiment [3], in experiment [4] and in experiment [5] was > 100 µM throughout.

On to `CCOC(=O)c1c(C)n(Cc2ccccc2)c2c1cc(O)c1[nH]c3c(c12)CCCC3`, for which the TGI in experiment [1] came to 15.6 µM; in experiment [2], 5.54 µM; in experiment [3], 4.1 µM; in experiment [4], 4.08 µM; in experiment [5], 13.3 µM.

`COC(=O)[C@H]1[C@H](C(=O)OC)[C@@H](C)c2c(ccc3c2[nH]c2ccccc23)[C@@H]1C`: the TGI in experiment [1], in experiment [2], in experiment [3], in experiment [4] and in experiment [5] was > 100 µM each time.

As for `c1ccc2c(c1)CCc1c-2n(CCN2CCCCC2)c2ccccc12`, the TGI is 40.3 µM in experiment [1]; 26.6 µM in experiment [2]; 30.3 µM in experiment [3]; 59.4 µM in experiment [4]; 30.9 µM in experiment [5].

`N#CC1C(=O)Nc2sc(C(=O)c3ccc(Br)cc3)c(N)c2C12CCCCC2` (stereo not given): the TGI in experiment [1] was 84.2 µM; in experiment [2], 42.6 µM; in experiment [3] it was > 100 µM; in experiment [4] it was > 100 µM; in experiment [5], > 100 µM.

On to `N[C@@H]1c2c(Br)sc(Br)c2[C@H](O)[C@@H]1O`, for which the TGI in experiment [1], in experiment [2], in experiment [3], in experiment [4] and in experiment [5] was > 100 µM each time.

As to `C=CCN1C(=O)/C(=C/c2ccc(C)cc2)N=C1SC/C=C/C`, the TGI in experiment [1] is 93.4 µM; in experiment [2], > 100 µM; in experiment [3], 77.6 µM; in experiment [4], > 100 µM; in experiment [5], > 100 µM.

Turning to `Cc1ccc(S(=O)(=O)N2CCSCCSCCN(S(=O)(=O)c3ccc(C)cc3)CCN(S(=O)(=O)c3ccc(C)cc3)CC2)cc1`, the TGI in experiment [1], in experiment [2], in experiment [3], in experiment [4] and in experiment [5] was > 100 µM throughout.

In the case of `CCOC(=O)CCC(NC(=O)c1ccc(CNc2nc3cc(N)cc(N)c3nc2-c2ccccc2)cc1)C(=O)OCC` (stereo not given), the TGI was 35.3 µM in experiment [1]; > 100 µM in experiment [2]; > 100 µM in experiment [3]; 42 µM in experiment [4]; > 100 µM in experiment [5].

For `CC(C)(C)NC(NC(C)(C)C)=C(C(Cl)=C(Cl)Cl)[N+](=O)[O-]`, the TGI in experiment [1], in experiment [2], in experiment [3], in experiment [4] and in experiment [5] was > 100 µM in each case.

For the molecule `O=C(CCCCCCCCC(=O)NN1C(=O)/C(=C\c2ccc(O)c(O)c2)SC1c1c(O)ccc2ccccc12)NN1C(=O)C(=Cc2ccc(O)c(O)c2)SC1c1c(O)ccc2ccccc12` (stereo not given), the TGI in experiment [1] is 74 µM; in experiment [2], 97.2 µM; in experiment [3] it was > 54.4 µM; in experiment [4], > 100 µM; in experiment [5] it was > 100 µM.

Turning to `Cn1c(-c2csc(-c3ccc(Cl)cc3)n2)n[nH]c1=S`, the TGI is 69.6 µM in experiment [1], 46.7 µM in experiment [2], 50.9 µM in experiment [4] and > 100 µM in experiment [5].

As to `CC(SC(=S)N1CCCCC1)C(=O)Nc1nnc(-c2ccc(Cl)cc2)o1` (stereo not given), the TGI in experiment [1] is 72.6 µM; in experiment [2] it was > 100 µM; in experiment [3], > 100 µM; in experiment [4], > 100 µM; in experiment [5] it was 76.1 µM.

Consider `CCCn1cnc2c(NN=O)ncnc21`, for which the TGI in experiment [1], in experiment [2], in experiment [3], in experiment [4] and in experiment [5] was > 100 µM in each case.

As for `Cc1cc2c(cc1O)CC[C@@H]1[C@@H]2CC[C@]2(C)[C@@H](O)CC[C@@H]12`, the TGI turned out to be 19.4 µM in experiment [1]; 19.8 µM in experiment [2]; 18.2 µM in experiment [3]; 29.2 µM in experiment [4]; 26.1 µM in experiment [5]. Besides, the GI50 in experiment [2] is 7.46 µM.

With `CC1=C(C(=O)OCCO[N+](=O)[O-])C(c2ccccc2C(F)(F)F)C(C(=O)OC(C)C)=C(C)N1` (stereo not given), the TGI in experiment [1] was 58.1 µM; in experiment [2], 31.6 µM; in experiment [3], 29.1 µM; in experiment [4] it was 93.4 µM; in experiment [5], 75.1 µM.
